Measured values reported in US9108983B2, “Pyrrole compounds, a process for their preparation and pharmaceutical compositions containing them” (LES LABORATOIRES SERVIER, priority 2013, dated 2015).
Counter-ions that a name gives are not always drawn. Like-named read-outs stand apart in the source and are kept apart here.

Legend:
[1] = system: RS4;11 leukaemia tumour line; test: In vitro cytotoxicity (Microculture Tetrazolium Assay); assay type: cell-based; conditions: RS4;11 cells, exposed for 48 hours, cell viability, read-out: IC50 (nM) MTT RS4;11
Protocol: The cytotoxicity studies were carried out on the RS4;11 leukaemia tumour line.
The cells are distributed onto microplates and exposed to the test compounds for 48 hours.
The cell viability is then quantified by a colorimetric assay, the Microculture Tetrazolium Assay (Cancer Res., 1987, 47, 939-942).

Bcl-2 protein = Bcl-2 protein (histag-Bcl-2, UniProtKB P10415) (Homo sapiens (Human), UniProt P10415); test: Inhibition of Bcl-2 by the fluorescence polarisation technique; assay type: binding; conditions: incubation for 2 hours
In short: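 Fluorescence polarisation competition: His-tagged Bcl-2 (2.50×10^−8 M final) with fluorescein-labelled peptide (1.00×10^−8 M final) in 10 mM Hepes, 150 mM NaCl, 0.05% Tween20, pH 7.4. Increasing compound concentrations were added. Polarisation was read after 2 h incubation.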

Sequence of Bcl-2 protein (P10415 whole entry): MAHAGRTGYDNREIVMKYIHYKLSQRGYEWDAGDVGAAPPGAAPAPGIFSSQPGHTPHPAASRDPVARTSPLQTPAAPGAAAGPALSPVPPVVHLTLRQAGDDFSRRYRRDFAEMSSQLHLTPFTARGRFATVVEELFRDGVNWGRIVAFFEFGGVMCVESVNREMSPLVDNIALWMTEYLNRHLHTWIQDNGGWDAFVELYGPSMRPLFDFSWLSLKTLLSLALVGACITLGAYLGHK

| SMILES | IC50 ([1]; Homo sapiens, RS4-11, 48 h) [nM] | IC50 (Bcl-2 protein; read-out: IC50 (nM) Bcl-2 FP) [nM] | IC50 ([1]; Homo sapiens) [nM] | IC50 [1] [nM] | IC50 (Bcl-2 protein; IC50 (nM) Bcl-2 FP) [nM] |
| --- | --- | --- | --- | --- | --- |
| Cc1c(C(=O)N(c2ccccc2)c2ccc(O)cc2)cc(-c2cc(Cl)ccc2C(=O)N2Cc3ccccc3C[C@H]2CN2CCOCC2)n1C [Example 17, 5-(5-Chloro-2-{[(3S)-3-(morpholin-4-ylmethyl)-3,4-dihydroisoquinolin-2(1H)-yl]carbonyl}phenyl)-N-(4-hydroxyphenyl)-1,2-dimethyl-N-phenyl-1H-pyrrole-3-carboxamide hydrochloride] | 75.2 | 8 | – | – | – |
| Cc1c(N(C(=O)c2cc(-c3ccc(F)cc3C(=O)N3Cc4ccccc4C[C@H]3CN3CCOCC3)n(C)c2C)c2ccc(O)cc2)cc(C#N)n1C [Example 428, N-(5-Cyano-1,2-dimethyl-1H-pyrrol-3-yl)-5-(4-fluoro-2-{[(3S)-3-(morpholin-4-ylmethyl)-3,4-dihydroisoquinolin-2(1H)-yl]carbonyl}phenyl)-N-(4-hydroxyphenyl)-1,2-dimethyl-1H-pyrrole-3-carboxamide hydrochloride] | 59.2 | 3.5 | – | – | – |
| Cc1c(N(C(=O)c2cc(-c3cc(Cl)ccc3C(=O)N3Cc4ccccc4C[C@H]3CCCN3CCOCC3)n(C)c2C)c2ccccc2)cc(C#N)n1C [Example 461, 5-(5-Chloro-2-{[(3R)-3-[3-(morpholin-4-yl)propyl]-3,4-dihydroisoquinolin-2(1H)-yl]carbonyl}phenyl)-N-(5-cyano-1,2-dimethyl-1H-pyrrol-3-yl)-1,2-dimethyl-N-phenyl-1H-pyrrole-3-carboxamide hydrochloride] | 18.6 | 3.1 | – | – | – |
| Cc1c(C(=O)N(C)c2ccc(O)cc2)cc(-c2cc(CNC(=O)Oc3ccccc3)ccc2C(=O)N2Cc3ccccc3C[C@H]2C)n1C [Example 40, Phenyl (3-{4-[(4-hydroxyphenyl)(methyl)carbamoyl]-1,5-dimethyl-1H-pyrrol-2-yl}-4-{[(3R)-3-methyl-3,4-dihydroisoquinolin-2(1H)-yl]carbonyl}benzyl)-carbamate] | – | 64.4 | 431 | – | – |
| Cc1cc(N(C(=O)c2cc(-c3cc(Cl)ccc3C(=O)N3Cc4ccccc4C[C@H]3CN3CCOCC3)n(C)c2C)c2ccc(O)cc2)no1 [Example 462, 5-(5-Chloro-2-{[(3S)-3-(morpholin-4-ylmethyl)-3,4-dihydroisoquinolin-2(1H)-yl]carbonyl}phenyl)-N-(4-hydroxyphenyl)-1,2-dimethyl-N-(5-methyl-1,2-oxazol-3-yl)-1H-pyrrole-3-carboxamide] | 368 | 13.3 | – | – | – |
| Cc1c(C(=O)N(c2ccc(O)cc2)c2cnc3c(ccn3C)c2)cc(-c2cc(F)ccc2C(=O)N2Cc3ccccc3C[C@H]2CN2CCOCC2)n1C [Example 385, 5-(5-Fluoro-2-{[(3S)-3-(morpholin-4-ylmethyl)-3,4-dihydroisoquinolin-2(1H)-yl]carbonyl}phenyl)-N-(4-hydroxyphenyl)-1,2-dimethyl-N-(1-methyl-1H-pyrrolo[2,3-b]pyridin-5-yl)-1H-pyrrole-3-carboxamide hydrochloride] | 28.7 | 5.7 | – | – | – |
| Cc1c(C(=O)N(c2cnc3c(ccn3C)c2)c2ccc(O)cn2)cc(-c2cc(Cl)ccc2C(=O)N2Cc3ccccc3C[C@H]2CN2CCOCC2)n1C [Example 464, 5-(5-Chloro-2-{[(3S)-3-(morpholin-4-ylmethyl)-3,4-dihydroisoquinolin-2(1H)-yl]carbonyl}phenyl)-N-(5-hydroxypyridin-2-yl)-1,2-dimethyl-N-(1-methyl-1H-pyrrolo[2,3-b]pyridin-5-yl)-1H-pyrrole-3-carboxamide dihydrochloride] | 723 | 36.6 | – | – | – |
| COc1ccc(C(=O)N2Cc3ccccc3C[C@H]2CN2CCOCC2)c(-c2cc(C(=O)N(c3ccc(O)cc3)c3cnn(C)c3)c(C)n2C)c1 [Example 24, N-(4-Hydroxyphenyl)-5-(5-methoxy-2-{[(3S)-3-(morpholin-4-ylmethyl)-3,4-dihydroisoquinolin-2(1H)-yl]carbonyl}phenyl)-1,2-dimethyl-N-(1-methyl-1H-pyrazol-4-yl)-1H-pyrrole-3-carboxamide hydrochloride] | 79.1 | 6.2 | – | – | – |
| Cc1c(C(=O)N(c2ccccc2)c2ccc(O)cc2)cc(-c2cc3c(cc2C(=O)N2Cc4ccccc4C[C@H]2CN2CCOCC2)OCO3)n1C [Example 15, N-(4-Hydroxyphenyl)-1,2-dimethyl-5-(6-{[(3S)-3-(morpholin-4-ylmethyl)-3,4-dihydroisoquinoin-2(1H)-yl]carbny}-1,3-benzodioxo-5-yl)-N-pheny-1H-pyrrole-3-carboxamide hydrochloride] | – | 11.1 | – | 69.4 | – |
| Cc1c(C(=O)N(c2ccc(O)cc2)c2cc3ccn(C)c3cn2)cc(-c2cc3c(cc2C(=O)N2Cc4ccccc4C[C@H]2CN2CCOCC2)OCO3)n1C [Example 387, N-(4-Hydroxyphenyl)-1,2-dimethyl-N-(1-methyl-1H-pyrrolo[2,3-c]pyridin-5-yl)-5-(6-{[(3S)-3-(morpholin-4-ylmethyl)-3,4-dihydroisoquinolin-2(1H)-yl]carbonyl}-1,3-benzodioxol-5-yl)-1H-pyrrole-3-carboxamide hydrochloride] | 243 | 20.6 | – | – | – |
| Cc1c(C(=O)N(c2ccc(O)cc2)c2cnc3c(c2)CCN3C)cc(-c2ccccc2C(=O)N2Cc3ccccc3C[C@H]2CN2CCOCC2)n1C [Example 410, N-(4-Hydroxyphenyl)-1,2-dimethyl-N-(1-methyl-2,3-dihydro-1H-pyrrolo[2,3-b]pyridin-5-yl)-5-(2-{[(3S)-3-(morpholin-4-ylmethyl)-3,4-dihydroisoquinolin-2(1H)-yl]carbonyl}phenyl)-1H-pyrrole-3-carboxamide hydrochloride] | 61.6 | 9.9 | – | – | – |
| Cc1c(C(=O)N(C)c2ccc(O)cc2)cc(-c2cc(CNC(=O)COc3ccccc3)ccc2C(=O)N2Cc3ccccc3C[C@H]2C)n1C [Example 53, N-(4-Hydroxyphenyl)-N,1,2-trimethyl-5-(2-{[(3R)-3-methyl-3,4-dihydroisoquinolin-2(1H)-yl]carbonyl}-5-{[(phenoxyacetyl)amino]methyl}phenyl)-1H-pyrrole-3-carboxamide] | 293 | 43.5 | – | – | – |
| Cc1c(C(=O)N(c2ccc(O)cc2)c2cnn(C3COC3)c2)cc(-c2cc(Cl)ccc2C(=O)N2Cc3ccccc3C[C@H]2CN2CCOCC2)n1C [Example 126, 5-(5-Chloro-2-{[(3S)-3-(morpholin-4-ylmethyl)-3,4-dihydroisoquinolin-2(1H)-yl]carbonyl}phenyl)-N-(4-hydroxyphenyl)-1,2-dimethyl-N-[1-(oxetan-3-yl) 1H-pyrazol-4-yl]-1H-pyrrole-3-carboxamide] | 49.2 | 4.2 | – | – | – |
| Cc1c(C(=O)N(C)c2ccc(O)cc2)cc(-c2cc(CCNC(=O)Oc3ccccc3)ccc2C(=O)N2Cc3ccccc3C[C@H]2C)n1C [Example 45, Phenyl[2-(3-{4-[(4-hydroxyphenyl)(methyl)carbamoyl]-1,5-dimethyl-1H-pyrrol-2-yl}-4-{[(3R)-3-methyl-3,4-dihydroisoquinolin-2(1H)-yl]carbonyl}-phenyl)ethyl]carbamate] | – | – | 403 | – | 38.9 |
| COc1cc(C(=O)N2Cc3ccccc3C[C@H]2CN2CCOCC2)c(-c2[nH]c(C)c(C(=O)N(c3ccc(O)cc3)c3cnn(C)c3)c2C)cc1F [Example 100, 5-(5-Fluoro-4-methoxy-2-{[(3S)-3-(morpholin-4-ylmethyl)-3,4-dihydroisoquinolin-2(1H)-yl]carbonyl}phenyl)-N-(4-hydroxyphenyl)-4,2-dimethyl-N-(1-methyl-1H-pyrazol-4-yl)-1H-pyrrole-3-carboxamide hydrochloride] | 193 | 22.9 | – | – | – |
